The results in this text go back to patent publication US9758492B2, “IDO inhibitors” (Bristol-Myers Squibb Company, priority 2013, dated 2017).

Assay [1] addresses T1, Human IDO1 (Homo sapiens, UniProt P14902).
T1 construct: expressed in transfected cells; host or cells: HEK293
The experiment in a line: IDO Kynurenine Assay with Human IDO1/HEK293 Cells. The settings on record: read-out: HEK human IDO-1 (IC50). The class given is cell-based. The gist of the method:
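HEK293 cells stably expressing human IDO1, in phenol red-free RPMI/10% FBS, exposed to compound for 20 h at 37 °C. Stopped with 0.2% TCA (50 °C, 30 min); kynurenine in supernatant detected with Ehrlich reagent, absorbance 490 nm.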

In assay [2] the target is IDO (Homo sapiens, UniProt P14902). The experiment in a line: LLE_IDO_ABS_DR (IDO assay).
IDO, sequence (P14902 whole entry): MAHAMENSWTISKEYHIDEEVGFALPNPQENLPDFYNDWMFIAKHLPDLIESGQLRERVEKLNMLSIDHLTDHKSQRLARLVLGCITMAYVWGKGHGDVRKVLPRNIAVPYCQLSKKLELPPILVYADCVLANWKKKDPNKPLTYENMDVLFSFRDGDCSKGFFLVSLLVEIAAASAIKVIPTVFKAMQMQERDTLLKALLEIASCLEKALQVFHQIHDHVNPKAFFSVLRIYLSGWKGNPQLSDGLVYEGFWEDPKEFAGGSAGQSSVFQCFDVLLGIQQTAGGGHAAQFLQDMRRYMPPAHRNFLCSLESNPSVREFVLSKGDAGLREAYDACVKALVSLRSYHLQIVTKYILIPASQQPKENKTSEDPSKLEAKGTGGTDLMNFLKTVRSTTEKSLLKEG

Each structure is given as a SMILES string. pIC50: −log10 of the molar value.

T1 sequence (P14902 whole entry): as above

For orientation: pIC50 means the negative decadic logarithm of the IC50, by convention in mol/L. In the case of `Cc1ccc(NC(=O)Nc2cc(-c3ccccc3-c3nnn[nH]3)ccc2N2CCC(c3ccccc3)C2)cc1` (racemic) [Example 367, (±)-1-(4-(3-Phenylpyrrolidin-1-yl)-2′-(1H-tetrazol-5-yl)-[1,1′-biphenyl]-3-yl)-3-(p-tolyl)urea], the pIC50 in assay [1] is 8.00; in assay [2] it was 7.70. For `O=C(Nc1ccc(C(F)(F)F)cc1F)Nc1cc(-c2ccccc2-c2nnn[nH]2)ccc1N1CCC(c2ccccc2)C1` (racemic) [Example 370, (±)-1-(2-Fluoro-4-(trifluoromethyl)phenyl)-3-(4-(3-phenylpyrrolidin-1-yl)-2′-(1H-tetrazol-5-yl)-[1,1′-biphenyl]-3-yl)urea] the same measures were 7.15 and 7.30. On to `Cc1ccc(NC(=O)Nc2cc(-c3ccccc3-c3nnn[nH]3)ccc2N(CCC(F)(F)F)Cc2cccc(Cl)c2)cc1` [Example 13, 1-(4-((3-Chlorobenzyl)(3,3,3-trifluoropropyl)amino)-2′-(1H-tetrazol-5-yl)-[1,1′-biphenyl]-3-yl)-3-(p-tolyl)urea], for which the pIC50 was 7.22 in assay [1] and 7.52 in assay [2]. For `Cc1ccc(NC(=O)Nc2cc(-c3ccccc3C(=O)O)ccc2N(CCC(F)(F)F)Cc2ccc(Cl)cc2)cc1` [Example 14, 4′-((4-Chlorobenzyl)(3,3,3-trifluoropropyl)amino)-3′-(3-(p-tolyl)ureido)-[1,1′-biphenyl]-2-carboxylic acid] the same measures were 7.00 and 7.10.

Consider `Cc1ccc(NC(=O)Nc2cc(-c3ccccc3-c3nnn[nH]3)ccc2N(CCC(F)(F)F)Cc2ccc(Cl)cc2)cc1` [Example 16], for which the pIC50 is 7.70 in assay [1] and 8.00 in assay [2]. Turning to `Cc1ccc(NC(=O)Nc2cc(-c3ccccc3-c3nnn[nH]3)ccc2N(CCC(F)(F)F)Cc2ccccc2Cl)cc1` [Example 19, 1-(4-((2-Chlorobenzyl)(3,3,3-trifluoropropyl)amino)-2′-(1H-tetrazol-5-yl)-[1,1′-biphenyl]-3-yl)-3-(p-tolyl)urea], the results for the pIC50 in assay [1] and in assay [2] were 7.40 and 7.70, respectively. With `CC(C)CN(CC(C)C)c1ccc(-c2ccccc2-c2nnn[nH]2)cc1NC(=O)Nc1ccc(Br)cc1F` [Example 38, 1-(4-Bromo-2-fluorophenyl)-3-(4-(diisobutylamino)-2′-(1H-tetrazol-5-yl)biphenyl-3-yl)urea], the pIC50 in assay [1] was 8.75; in assay [2], 8.74.

In the case of `Cc1ccc(NC(=O)Nc2cc(-c3ccccc3-c3nnn[nH]3)cc(Cl)c2N(CC(C)C)CC(C)C)cc1` [Example 39, 1-(5-Chloro-4-(diisobutylamino)-2′-(1H-tetrazol-5-yl)biphenyl-3-yl)-3-p-tolylurea], the pIC50 was 8.63 in assay [1] and 9.00 in assay [2]. Turning to `Cc1ccc(NC(=O)Nc2cc(-c3ccccc3C(=O)O)cc(Cl)c2N(CC(C)C)CC(C)C)cc1` [Example 40, 3′-Chloro-4′-(diisobutylamino)-5′-(3-p-tolylureido)biphenyl-2-carboxylic acid], the figures for the pIC50 in assay [1] and in assay [2] were 8.00 and 8.42, respectively. Consider `Cc1ccc(NC(=O)Nc2cc(-c3cc(F)ccc3C(=O)O)cc(Cl)c2N(CC(C)C)CC(C)C)cc1` [Example 41, 3′-Chloro-4′-(diisobutylamino)-5-fluoro-5′-(3-p-tolylureido)biphenyl-2-carboxylic acid], for which the results for the pIC50 in assay [1] and in assay [2] were 8.20 and 8.75, respectively. For `Cc1ccc(NC(=O)Nc2cc(-c3cc(F)ccc3C(=O)O)ccc2N(CC(C)C)CC(C)C)cc1` [Example 126, 4′-(diisobutylamino)-5-fluoro-3′-(3-p-tolylureido)biphenyl-2-carboxylic acid], the values for the pIC50 in assay [1] and in assay [2] were 8.00 and 7.70, respectively.

As to `Cc1ccc(NC(=O)Nc2cc(-c3ccc(Cl)cc3C(=O)O)ccc2N(CC(C)C)CC(C)C)cc1` [Example 127, 4-chloro-4′-(diisobutylamino)-3′-(3-p-tolylureido) biphenyl-2-carboxylic acid], the pIC50 is 7.10 in assay [1] and 6.89 in assay [2].

Consider `CCOc1ccc(NC(=O)Nc2cc(-c3cccc(C)c3C(=O)O)ccc2N(CC(C)C)CC(C)C)cc1` [Example 545], for which the pIC50 in assay [1] is 7.22.
